Measurements reported in the NIST ThermoML archive (doi:10.1021/je050367p).

Tests used:
[1] = xn = mol fraction of the nth substance listed; details: Liquid; for viscosity: Capillary tube (Ostwald / Ubbelohde) method
[2] = refractive index (Na D-line) (dimensionless); xn = mol fraction of the nth substance listed; details: 100.8 kPa, Liquid, Standard Abbe refractometry

CC(C)OC(C)C [diisopropyl ether] + CCO
[1], 100.5 kPa
Details	mass density, 288.15 K [kg/m3]	mass density, 298.15 K [kg/m3]	mass density, 308.15 K [kg/m3]	viscosity, 288.15 K [mPa·s]	viscosity, 298.15 K [mPa·s]	viscosity, 308.15 K [mPa·s]
x1 = 0.05	788.65	779.96	771.13	1.176	0.975	0.814
x1 = 0.1	783.6	774.78	765.84	1.046	0.875	0.736
x1 = 0.15	779.02	770.05	760.98	0.946	0.793	0.67
x1 = 0.2	774.89	765.79	756.58	0.85	0.719	0.612
x1 = 0.25	770.69	761.45	752.16	0.771	0.656	0.562
x1 = 0.3	766.92	757.63	748.12	0.705	0.603	0.52
x1 = 0.35	763.36	753.93	744.32	0.648	0.558	0.484
x1 = 0.4	760.02	750.47	740.76	0.599	0.519	0.453
x1 = 0.45	756.93	747.28	737.5	0.558	0.486	0.426
x1 = 0.5	753.87	744.13	734.3	0.523	0.458	0.403
x1 = 0.55	750.98	741.18	731.25	0.493	0.432	0.383
x1 = 0.6	748.29	738.39	728.37	0.468	0.412	0.365
x1 = 0.65	745.73	735.73	725.59	0.444	0.392	0.35
x1 = 0.7	743.19	733.1	722.86	0.423	0.376	0.336
x1 = 0.7499	740.73	730.59	720.23	0.407	0.362	0.324
x1 = 0.8	738.4	728.19	717.79	0.392	0.35	0.314
x1 = 0.85	735.94	725.76	715.31	0.378	0.339	0.305
x1 = 0.9	733.6	723.36	712.89	0.367	0.329	0.297
x1 = 0.95	731.15	720.98	710.53	0.357	0.32	0.289
x1 = 1	729.09	718.7	708.12	0.348	0.313	0.283

refractive index, [2]
Details	288.15 K	298.15 K	308.15 K
x1 = 0.05	1.36501	1.36077	1.35646
x1 = 0.1	1.36653	1.3621	1.35763
x1 = 0.15	1.36768	1.3631	1.3585
x1 = 0.2	1.3686	1.36392	1.35923
x1 = 0.25	1.36935	1.36456	1.35977
x1 = 0.3	1.36998	1.3651	1.36021
x1 = 0.35	1.37047	1.3655	1.36052
x1 = 0.4	1.37086	1.36582	1.36077
x1 = 0.45	1.37117	1.36608	1.36093
x1 = 0.5	1.3714	1.3663	1.36103
x1 = 0.55	1.37159	1.36642	1.36107
x1 = 0.6	1.37174	1.36648	1.36109
x1 = 0.65	1.37183	1.36649	1.36108
x1 = 0.7	1.37187	1.36646	1.36098
x1 = 0.7499	1.37187	1.36638	1.36085
x1 = 0.8	1.37181	1.36627	1.36068
x1 = 0.85	1.37167	1.36611	1.36044
x1 = 0.9	1.3715	1.36588	1.36019
x1 = 0.95	1.3712	1.36558	1.35986
x1 = 1	1.37093	1.36524	1.35944

CC(C)CC(C)(C)C [2,2,4-trimethylpentane] + CCO
[1], 100.8 kPa
Details	mass density, 288.15 K [kg/m3]	mass density, 298.15 K [kg/m3]	mass density, 308.15 K [kg/m3]	viscosity, 288.15 K [mPa·s]	viscosity, 298.15 K [mPa·s]	viscosity, 308.15 K [mPa·s]
x2 = 0	695.95	687.74	679.41	0.537	0.48	0.432
x2 = 0.0502	697.2	688.84	680.36	0.532	0.473	0.424
x2 = 0.1	698.76	690.33	681.76	0.535	0.476	0.426
x2 = 0.15	700.55	692.11	683.52	0.542	0.48	0.429
x2 = 0.2	702.53	694.07	685.43	0.551	0.487	0.434
x2 = 0.25	704.71	696.21	687.56	0.564	0.497	0.441
x2 = 0.3	707.1	698.57	689.88	0.58	0.51	0.451
x2 = 0.35	709.71	701.17	692.45	0.601	0.526	0.462
x2 = 0.4	712.6	704.03	695.3	0.625	0.543	0.476
x2 = 0.45	715.8	707.2	698.44	0.652	0.565	0.492
x2 = 0.5	719.31	710.68	701.91	0.682	0.588	0.51
x2 = 0.55	723.22	714.59	705.8	0.718	0.615	0.531
x2 = 0.6	727.55	718.9	710.11	0.755	0.645	0.554
x2 = 0.65	732.37	723.73	714.93	0.797	0.677	0.58
x2 = 0.7	737.81	729.14	720.34	0.843	0.715	0.609
x2 = 0.75	743.99	735.34	726.54	0.894	0.755	0.642
x2 = 0.8	751.11	742.37	733.58	0.952	0.801	0.678
x2 = 0.85	759.27	750.54	741.75	1.018	0.854	0.72
x2 = 0.9	768.81	760.17	751.44	1.095	0.915	0.769
x2 = 0.95	780.26	771.59	762.84	1.19	0.991	0.828

refractive index, [2]
Details	288.15 K	298.15 K	308.15 K
x2 = 0	1.39404	1.389	1.38395
x2 = 0.0502	1.39319	1.3881	1.38297
x2 = 0.1	1.39241	1.3873	1.38217
x2 = 0.15	1.39162	1.38651	1.38138
x2 = 0.2	1.39081	1.38569	1.38056
x2 = 0.25	1.38996	1.38485	1.37972
x2 = 0.3	1.38907	1.38397	1.37885
x2 = 0.35	1.38811	1.38304	1.37794
x2 = 0.4	1.38709	1.38204	1.37696
x2 = 0.45	1.38597	1.38099	1.37593
x2 = 0.5	1.38479	1.37984	1.3748
x2 = 0.55	1.3835	1.37858	1.37358
x2 = 0.6	1.38209	1.37722	1.37227
x2 = 0.65	1.38055	1.37573	1.37083
x2 = 0.7	1.37884	1.37408	1.36922
x2 = 0.75	1.37694	1.37225	1.36745
x2 = 0.8	1.37484	1.3702	1.3655
x2 = 0.85	1.37249	1.36792	1.3633
x2 = 0.9	1.36984	1.36536	1.36085
x2 = 0.95	1.36684	1.36248	1.35812
